Experimental data as given in patent publication US11352350B2, “IRAK degraders and uses thereof” (Kymera Therapeutics, Inc., priority 2018, dated 2022).
Like-named read-outs stand apart in the source and are kept apart here.

Experiments:
IRAK4 = IRAK4 (Homo sapiens (Human), UniProt Q9NWZ3); assay: IRAK4 MSD degradation in OCI-LY10; type: cell-based
How it was run: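 Remaining IRAK4 quantified by electrochemiluminescent MSD sandwich assay with two anti-IRAK4 antibodies. Compounds were dosed as 8 concentrations in 1:3 steps from a 1 to 10 μM final top on OCI-LY10 cells, incubated 4 to 24 h at 37° C. under 5% CO2. DC50 fitted with a three-parameter logistic curve.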

OCI-LY10 = assay: CTG Cell Viability Assay - OCI-LY10; type: cell-based, human; details: Homo sapiens, OCI-Ly10, 96 h, OCI-LY10, 4 days; read-out: CTG Cell Viability Assay - OCI-LY10: Average external-IC50
How it was run: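 Viability read by CellTiter-Glo luminescence after 4 days at 37° C under 5% CO2 with compound (top 10 μM final, 1:3 steps, 9 doses, DMSO 0.2%). Three-parameter logistic fit gave IC50.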

[1] = OCI-LY10, 4 hrs, MSD, read-out: IRAK4 MSD degradation in OCI-LY10 at 4 hrs: Average external-Abs DC50
[2] = OCI-LY10, 24 hrs, MSD, read-out: IRAK4 MSD degradation in OCI-LY10 at 24 hrs: Average external-Abs DC50

Sequence of IRAK4 (Q9NWZ3 whole entry): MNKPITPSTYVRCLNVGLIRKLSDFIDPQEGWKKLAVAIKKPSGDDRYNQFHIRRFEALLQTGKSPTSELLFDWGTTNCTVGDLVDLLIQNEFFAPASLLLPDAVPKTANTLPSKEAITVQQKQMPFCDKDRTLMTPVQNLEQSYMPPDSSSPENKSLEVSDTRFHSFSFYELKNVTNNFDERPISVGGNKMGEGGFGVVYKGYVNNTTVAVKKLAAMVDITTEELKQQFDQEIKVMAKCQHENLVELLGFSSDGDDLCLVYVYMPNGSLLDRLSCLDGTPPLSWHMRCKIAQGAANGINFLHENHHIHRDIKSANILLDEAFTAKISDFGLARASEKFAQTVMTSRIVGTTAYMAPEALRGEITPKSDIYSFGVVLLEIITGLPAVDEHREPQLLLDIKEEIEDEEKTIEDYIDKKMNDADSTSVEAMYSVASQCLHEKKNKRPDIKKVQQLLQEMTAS

Compound	DC50 (IRAK4; [1]) [nM]	DC50 (IRAK4; [2]) [nM]	IC50 (OCI-LY10) [nM]	DC50 (IRAK4; OCI-LY10, 4 hrs, read-out: IRAK4 MSD degradation in OCI-LY10 at 4 hrs: DC50) [nM]	DC50 (IRAK4; OCI-LY10, 24 hrs, read-out: IRAK4 MSD degradation in OCI-LY10 at 24 hrs: DC50) [nM]
CN(Cc1ccc(CCNc2cccc3c2C(=O)N(C2CCC(=O)NC2=O)C3=O)cc1)C[C@H]1CC[C@H](n2cc(NC(=O)c3cnn4ccc(N5C[C@H]6C[C@@H]5CO6)nc34)c(C(F)F)n2)CC1 (stereo partly drawn) [I-341, N-[3-(difluoromethyl)-1-[4-[[[4-[2-[[2-(2,6-dioxo-3-piperidyl)-1,3-dioxo-isoindolin-4-yl]amino]ethyl]phenyl]methyl-methyl-amino]methyl]cyclohexyl]pyrazol-4-yl]-5-[(1R,4R)-2-oxa-5-azabicyclo [2.2.1]heptan-5-yl] pyrazolo [1,5-a] pyrimidine-3-carboxamide]	100 to 1000	10 to 100	> 1000		
O=C1CCC(N2C(=O)c3cccc(NCC4CCN(Cc5ccc(-n6cc(NC(=O)c7cnn8ccc(N9C[C@H]%10C[C@@H]9CO%10)nc78)c(C(F)F)n6)cc5)CC4)c3C2=O)C(=O)N1 (some centres unmarked) [I-489]			< 50	100 to 1000	> 1000
Cn1c(=O)n(C2CCC(=O)NC2=O)c2ccc(CCCCCCC(=O)N3CCN([C@H]4CC[C@H](Nc5ncnc6[nH]cc(C7CCOCC7)c56)CC4)CC3)cc21 (some centres unmarked) [I-22]	> 1000	> 1000	100 to 500		
CC[C@@H]1[C@H](F)C(=O)N[C@@H]1COc1ncc(C#C[C@H]2CC[C@H](CN3CCC(OCCCc4ccc5c(c4)n(C)c(=O)n5C4CCC(=O)NC4=O)CC3)CC2)c2cc(C(N)=O)c(OC)cc12 (some centres unmarked) [I-187]	> 1000	< 10	> 1000		
N#CCc1ccc2c(N[C@H]3CC[C@H](N4CCN(C(=O)COCCOCCOCCOCCNc5cccc6c5C(=O)N(C5CCC(=O)NC5=O)C6=O)CC4)CC3)ncnc2c1 (some centres unmarked) [I-52]	> 1000		100 to 500		
O=C1CCC(N2C(=O)c3cccc(NCCCCOC4CCN(C[C@H]5CC[C@H](n6cc(NC(=O)c7coc(-c8ccnc(NCC9CC9)c8)n7)c(C(F)F)n6)CC5)CC4)c3C2=O)C(=O)N1 (some centres unmarked) [I-170]	10 to 100		< 50		
CN(CCCCCCCNC(=O)c1ccc(CNCc2ccc(-c3ccc4c(cnn4CC4CC4)c3)cc2)cc1)C[C@H]1CC[C@H](n2cc(NC(=O)c3coc(-c4ccnc(NCC5CC5)c4)n3)c(C(F)F)n2)CC1 [I-135]	100 to 1000	> 1000	> 1000		
Cn1c(=O)n(C2CCC(=O)NC2=O)c2cccc(CCCOC3CCN(C[C@H]4CC[C@H](n5cc(NC(=O)c6cnn7ccc(N8CCOCC8)nc67)c(C(C)(C)O)n5)CC4)CC3)c21 (some centres unmarked) [I-216]	100 to 1000		> 1000		
CN(C[C@H]1CC[C@H](n2cc(NC(=O)c3coc(-c4ccnc(NCC5CC5)c4)n3)c(C(F)F)n2)CC1)C1CCN(Cc2cccc3c2n(C)c(=O)n3C2CCC(=O)NC2=O)CC1 (some centres unmarked) [I-400]	< 10		< 50		
CN(CCOCCNCc1cccc2c1n(C)c(=O)n2C1CCC(=O)NC1=O)C[C@H]1CC[C@H](n2cc(NC(=O)c3coc(-c4ccnc(NCC5CC5)c4)n3)c(C(F)F)n2)CC1 (some centres unmarked) [I-237]	< 10		> 1000		
O=C1CCC(N2C(=O)c3cccc(NC4CCN(C[C@H]5CC[C@H](n6cc(NC(=O)c7cnn8ccc(N9CCOCC9)nc78)c(C(F)F)n6)CC5)CC4)c3C2=O)C(=O)N1 (some centres unmarked) [I-218]	100 to 1000	100 to 1000	> 1000		
O=C1CCC(N2C(=O)c3cccc(NCCCOCCCOC[C@H]4CC[C@H](n5cc(NC(=O)c6cnn7ccc(N8C[C@H]9C[C@@H]8CO9)nc67)c(C(F)F)n5)CC4)c3C2=O)C(=O)N1 (some centres unmarked) [I-363]	> 1000		> 1000		
O=C1CCC(N2C(=O)c3cccc(NCc4ccc(CN5CCN(C[C@H]6CC[C@H](n7cc(NC(=O)c8cnn9ccc(N%10CCOCC%10)nc89)c(C(F)F)n7)CC6)CC5)cc4)c3C2=O)C(=O)N1 (some centres unmarked) [I-356]	> 1000	10 to 100	< 50		
O=C1CCC(n2c(=O)oc3cc(CCCOC4CCN(C[C@H]5CC[C@H](n6cc(NC(=O)c7cnn8ccc(N9CCNCC9)nc78)c(C(F)F)n6)CC5)CC4)ccc32)C(=O)N1 (some centres unmarked) [I-166]	10 to 100		> 1000		
CN(CC1CCN(Cc2ccc3c(c2)n(C)c(=O)n3C2CCC(=O)NC2=O)CC1)C[C@H]1CC[C@H](n2cc(NC(=O)c3coc(-c4ccnc(NCC5CC5)c4)n3)c(C(F)F)n2)CC1 (some centres unmarked) [I-127]	< 10	< 10	> 1000		
